Test results: patent publication US9765037B2, “Compositions and methods for treating toxoplasmosis, cryptosporidiosis, and other apicomplexan protozoan related diseases” (University of Washington Through its Center for …, priority 2010, dated 2017)
Converted amounts (≈) assume the structure as drawn. Like-named read-outs stand apart in the source and are kept apart here.

How the values were obtained:
Src3D = Src3D (Homo sapiens (Human), UniProt P12931); assay: biochemical
[1] = test system: human lymphocyte (CRL8155); assay: Growth inhibition of human cell line CRL8155; conditions: for GI50: read-out: GI50 (μM) CRL8155
[2] = test system: human promyelocytic leukemia (HL-60); assay: Growth inhibition of human cell line HL-60; conditions: for GI50: read-out: GI50 (μM) HL60
PfCDPK4 = PfCDPK4 (Plasmodium falciparum (isolate 3D7), UniProt Q8IBS5); assay: biochemical
CpCDPK1 = CpCDPK1 (Cryptosporidium parvum (strain Iowa II), UniProt A3FQ16); assay: biochemical; assay type: biochemical
C. parvum = assay: Immunosuppressed (SCID-beige) mouse C. parvum model; assay type: in vivo, Cryptosporidium parvum; conditions: SCID-beige mice; oral gavage once a day, days 3-7 and 10-14; 29 and 150 at 50 mg/kg/day, Paromomycin 2 g/kg/day
Protocol: Shown are mean of the parasite numbers detected in 25 mg of stool from each mouse, by qRT-PCR.

AblKD = AblKD (Homo sapiens (Human), UniProt P00519); assay: Tyrosine kinase IC50, AblKD; assay type: biochemical; conditions: Table 9
[3] = Blood levels after oral gavage dosing of mice (LC-MS); conditions: for Blood level, First Peak / Blood level, Fourth D4 Peak / Blood level, First Trough: mice, 40 mg/kg oral gavage 3x daily for 4 days, mean±SD, N=3; for Blood level, First Peak: 1 hr after first dose; for Blood level, Fourth D4 Peak: 1 hr after third dose of d4; for Blood level, First Trough: 17 hours after dosing, beginning of d2; for Cmax / Tmax / concentration at 17 h / AUC: mouse, po; for concentration at 17 h: 40 mg/kg
SrcKD = SrcKD (Homo sapiens (Human), UniProt P12931); assay: Tyrosine kinase IC50, SrcKD; assay type: biochemical
human fibroblast = assay: Human fibroblast replication / cytotoxicity (Alamar blue); assay type: cell-based
glioma derived (SF539) = assay: Growth inhibition of human cell line SF539; conditions: for GI50: read-out: GI50 (μM) SF539
[4] = test system: colorectal carcinoma (HC 2998); assay: Growth inhibition of human cell line HC 2998; conditions: for GI50: read-out: GI50 (μM) HCC2998
in vivo = conditions: mouse, ip
[5] = test system: P. berghei expressing PfCDPK4-2x-myc; assay: Exflagellation in blood of treated mice infected with P. berghei expressing PfCDPK4-2x-myc; assay type: in vivo, Plasmodium berghei
HckKD = HckKD (Homo sapiens (Human), UniProt P08631); assay: Tyrosine kinase IC50, HckKD; assay type: biochemical; conditions: Table 9
PfCDPK1 = PfCDPK1 (Plasmodium falciparum (isolate 3D7), UniProt P62344); assay: biochemical
[6] = test system: P. berghei expressing GFP; assay: P. berghei transmission from treated mice to A. stephensi; conditions: for formation of oocysts in A. stephensi fed on treated mice: mice treated i.p., Compound 29 at 10 mg/kg, mosquitoes fed 30 minutes after dosing
[7] = Solubility in buffers of various pH; assay type: physicochemical; conditions: buffer
[8] = mouse, in vivo, ip, 50 mg/kg
Abl3D = Abl3D (Homo sapiens, UniProt P00519); assay: Tyrosine kinase IC50, Abl3D; assay type: biochemical; conditions: Table 9
SRC = SRC (Homo sapiens (Human), UniProt P12931); conditions: for IC50: read-out: IC50 (μM) Src
ABL = ABL (Homo sapiens (Human), UniProt P00519); assay type: biochemical
[9] = Table 8, read-out: IC50 (μM) CpCDPK1

Structure (SMILES): CC(C)n1nc(-c2cc3c(Cl)cccc3[nH]2)c2c(N)ncnc21 [Compound 26, 3-(4-chloro-1H-indol-2-yl)-1-isopropyl-1H-pyrazolo[3,4-d]pyrimidin-4-amine]
- IC50 (Src3D): 1.24 µM
- Cell Toxicity CRL8155, % at 10 μM [1]: 38% toxicity at
- Cell Toxicity HL60, % at 10 μM [2]: 45% toxicity at
- EC50 (PfCDPK4): 0.544 µM
- IC50 (CpCDPK1; [9]): 0.0162 µM

Structure (SMILES): CCOc1ccc2cc(-c3nn(CC4CCN(C)CC4)c4ncnc(N)c34)ccc2c1 [Compound 150, 3-(6-ethoxynaphthalen-2-yl)-1-((1-methylpiperidin-4-yl)methyl)-1H-pyrazolo[3,4-d]pyrimidin-4-amine]
- parasites in stool (qRT-PCR) at the end of treatment (C. parvum): not detected
- Cell Toxicity CRL8155, % at 10 μM [1]: <30% at 10 μM
- Cell Toxicity CRL8155, % at 30 μM ([1]; 30 μM): <30% at 30 μM
- IC50 (AblKD): > 3 µM
- Blood level, First Peak [3]: 2100 ± 1200 nM
- Blood level, Fourth D4 Peak [3]: 8900 ± 3400 nM
- Blood level, First Trough [3]: 2000 ± 1600 nM
- Cmax ([3]; in vivo, 10 mg/kg): 800 nM
- Tmax ([3]; in vivo, 10 mg/kg): 2.15 h
- concentration at 17 h ([3]; in vivo): 6300 ± 1800 nM
- Cell Toxicity HL60, % at 10 μM [2]: <30% at 10 μM
- Cell Toxicity HL60, % at 30 μM ([2]; 30 μM): <30% at 30 μM
- EC50 (PfCDPK4): 0.0337 µM
- IC50 (PfCDPK4): 0.01 µM
- IC50 (SrcKD; Table 9): > 10 µM
- Observed HFF Toxicity (T at concentration) (human fibroblast): T at 25 μM

Structure (SMILES): CCOc1ccc2cc(-c3nn(CC4CCNCC4)c4ncnc(N)c34)ccc2c1 [Compound 29, 3-(6-ethoxynaphthalen-2-yl)-1-(piperidin-4-ylmethyl)-1H-pyrazolo[3,4-d]pyrimidin-4-amine]
- Cell Toxicity SF539, % at 10 μM (glioma derived (SF539)): <30% at 10 μM
- Cell Toxicity HCC2998, % at 10 μM [4]: <30% at 10 μM
- parasite burden rebound after treatment (C. parvum): slowly
- parasites in stool (qRT-PCR) at the end of treatment (C. parvum): not detected
- Cell Toxicity CRL8155, % at 10 μM [1]: <30% at 10 μM
- IC50 (AblKD): > 20 µM
- AUC (in vivo; 10 mg/kg): 3.18 µM·h
- Cmax (in vivo; 10 mg/kg): 700 nM
- Tmax (in vivo; 10 mg/kg): 0.5 h
- AUC (in vivo; 50 mg/kg): 29.5 µM·h
- Cmax (in vivo; 50 mg/kg): 8200 nM
- Tmax (in vivo; 50 mg/kg): 0.5 h
- concentration at 20 h (in vivo; 50 mg/kg): 410 nM
- exflagellation 20 hours after dosing ([5]; 50 mg/kg i.p.): some exflagellation was observed
- exflagellation in blood samples from treated mice ([5]; 50 mg/kg i.p., 30 minutes post-injection and up to 14 hours later): completely suppressed exflagellation
- exflagellation in treated mice ([5]; mice, 10 mg/kg i.p.): sufficient to block exflagellation
- duration of complete suppression of exflagellation ([5]; mice, 50 mg/kg i.p.): 14 h
- Blood level, First Peak [3]: 50 ± 80 nM
- Blood level, Fourth D4 Peak [3]: 6600 ± 1600 nM
- Blood level, First Trough [3]: 0 ± 0 nM
- concentration at 17 h ([3]; blood): 0 nM
- AUC ([3]; in vivo): 20 µM·h
- Cmax ([3]; in vivo): 6640 nM
- Tmax ([3]; in vivo): 2 h
- AUC ([3]; in vivo, 10 mg/kg): 0.95 µM·h
- Cmax ([3]; in vivo, 10 mg/kg): 200 nM
- Tmax ([3]; in vivo, 10 mg/kg): 2.33 h
- AUC ([3]; in vivo, 50 mg/kg): 5.18 µM·h
- Cmax ([3]; in vivo, 50 mg/kg): 1100 nM
- Tmax ([3]; in vivo, 50 mg/kg): 2.67 h
- IC50 (HckKD): > 10 µM
- Cell Toxicity HL60, % at 10 μM [2]: <30% at 10 μM
- EC50 (PfCDPK1): 0.353 µM
- IC50 (CpCDPK1; [9]): 0.0035 µM
- IC50 (CpCDPK1; read-out: Enzymatic Assay IC50 CpCDPK1): 0.001 µM
- formation of oocysts in A. stephensi fed on treated mice [6]: completely blocked the formation of oocysts
- impact on asexual parasitaemia or gametocyte rates ([6]; mice, 10 mg/kg i.p.): no impact
- solubility ([7]; aqueous buffer, pH 2.0, read-out: Experimental Solubility pH 2.0): 34 µM (≈ 13.7 µg/mL)
- solubility ([7]; pH 6.5, aqueous buffer, read-out: Experimental Solubility pH 6.5): 47 µM (≈ 18.9 µg/mL)
- solubility ([7]; pH 7.4, aqueous buffer, read-out: Experimental Solubility pH 7.4): 49 µM (≈ 19.7 µg/mL)
- peak plasma concentration [8]: 8.2 µM
- plasma levels for 20 hours post-treatment [8]: exceeding 0.4 μM
- IC50 (SrcKD; Table 9): > 20 µM

Structure (SMILES): Nc1nc2ccc(C(=O)c3ccccc3)cc2[nH]1 [Compound 92]
- IC50 (SrcKD; Table 9): > 10 µM
- IC50 (Abl3D): ~10 µM

Structure (SMILES): CC(C)(C)n1nc(-c2cccc3ccccc23)c2c(N)ncnc21 [Compound 1, 1-tert-butyl-3-(naphthalen-1-yl)-1H-pyrazolo[3,4-d]pyrimidin-4-amine]
- inhibition of SRC (in words) (SRC): do not potently inhibit
- IC50 (SRC): 1.3 µM
- GI50 (glioma derived (SF539); human cell line SF539): > 10 µM
- GI50 ([4]; human cell line HCC2998): > 10 µM
- GI50 ([1]; human cell line CRL8155): > 10 µM
- GI50 ([2]; human cell line HL60): > 10 µM
- IC50 (CpCDPK1; read-out: IC50 (μM) CpCDPK1): > 3 µM
- IC50 (SrcKD): 1.3 µM

Structure (SMILES): COc1ccc2cc(-c3nn(C(C)C)c4ncnc(N)c34)ccc2c1 [Compound 7q, 1-isopropyl-3-(6-methoxynaphthalen-2-yl)-1H-pyrazolo[3,4-d]pyrimidin-4-amine]
- IC50 (SRC): 0.77 µM
- Cell Toxicity SF539, % at 10 μM (glioma derived (SF539)): <30% at 10 μM
- GI50 (glioma derived (SF539)): > 10 µM
- Cell Toxicity HCC2998, % at 10 μM [4]: <30% at 10 μM
- GI50 [4]: > 10 µM
- IC50 (Src3D): 0.576 µM
- Cell Toxicity CRL8155, % at 10 μM [1]: <30% at 10 μM
- GI50 [1]: > 10 µM
- AUC (in vivo): 4.6 µM·h
- Cmax (in vivo): 3800 nM
- Tmax (in vivo): 0.5 h
- AUC ([3]; in vivo): 35.3 µM·h
- Cmax ([3]; in vivo): 19700 nM
- Tmax ([3]; in vivo): 0.5 h
- IC50 (HckKD): 0.375 µM
- Cell Toxicity HL60, % at 10 μM [2]: <30% at 10 μM
- GI50 [2]: > 10 µM
- EC50 (PfCDPK4): 0.0414 µM
- EC50 (PfCDPK1): 0.208 µM
- IC50 (CpCDPK1; read-out: IC50 (μM) CpCDPK1): 0.005 µM
- IC50 (SrcKD): 0.77 µM

Structure (SMILES): Nc1ncnc2c1c(Cc1cccc3ccccc13)nn2CC1CCNCC1 [Compound 5h, 3-(naphthalen-1-ylmethyl)-1-(piperidin-4-ylmethyl)-1H-pyrazolo[3,4-d]pyrimidin-4-amine]
- IC50 (SRC): > 20 µM
- Cell Toxicity SF539, % at 10 μM (glioma derived (SF539)): <30% at 10 μM
- GI50 (glioma derived (SF539); human cell line SF539): > 10 µM
- Cell Toxicity HCC2998, % at 10 μM [4]: <30% at 10 μM
- GI50 ([4]; human cell line HCC2998): > 10 µM
- Cell Toxicity CRL8155, % at 10 μM [1]: <30% at 10 μM
- GI50 ([1]; human cell line CRL8155): > 10 µM
- IC50 (ABL): > 20 µM
- IC50 (AblKD): > 20 µM
- IC50 (HckKD): > 10 µM
- Cell Toxicity HL60, % at 10 μM [2]: <30% at 10 μM
- GI50 ([2]; human cell line HL60): > 10 µM
- EC50 (PfCDPK4): 0.154 µM
- IC50 (SrcKD; Table 9): > 20 µM

Structure (SMILES): CC(C)n1nc(-c2cc3ccccc3[nH]2)c2c(N)ncnc21 [Compound 24, 3-(1H-indol-2-yl)-1-isopropyl-1H-pyrazolo[3,4-d]pyrimidin-4-amine]
- IC50 (Src3D): 1.45 µM
- EC50 (PfCDPK4): 0.337 µM
- EC50 (PfCDPK1): 0.471 µM
- IC50 (CpCDPK1; [9]): 0.0704 µM

Structure (SMILES): CC(C)(C)n1nc(-c2ccc3ccccc3c2)c2c(N)ncnc21 [NA-PP2, reference compound]
- formation of oocysts in A. stephensi fed on treated mice [6]: hundreds of oocysts per mosquito
